# From patent publication EP4310093A1, “AMINO ACID DERIVATIVE, PREPARATION METHOD THEREFOR, AND PHARMACEUTICAL COMPOSITION FOR TREATING HEPATITIS, COMPRISING SAME” (priority 2021, dated 2022)
# Legend:
# HBV [1] = test: Inhibition of intracellular HBV virus invasion, Southern blot analysis; assay type: cell-based
# Experimental: (§1) In order to evaluate the ability to inhibit intracellular HBV virus entry (invasion), Enzyme-linked immunosorbent assay (ELISA) analysis to measure HBeAg, which is associated with high infectivity as an antigen in the HBV virus core portion, and Southern blot analysis to measure DNA of HBV were performed.
# (§2) Specifically, the HepG2-NTCP cell line was cultured on a 6-well plate, incubation was performed overnight, HBV inhibitors were treated at a concentration of 20 µM, and the positive control Myrcludex-B (MyrB) was treated at a concentration of 200 nM, followed by culture for 24 hours. After HBV infection into the cells to make HBV 3000 genome equivalent per ml/cell (Geq/cell), the cell culture medium was replaced (medium changing, MC) a day after the viral infection to remove the virus unattached to cell membranes. In order to measure an amount of virus that entered the cell, medium changing (MC) was performed once more 4 days after viral infection. 2 days after replacement, HBeAg ELISA analysis was performed using a supernatant, and Southern blot analysis was performed with cell pellets.
# For the cell pellet obtained by the method of Experimental Example 4-1, Southern blot analysis for measurement of […] DNA was performed using Example 1 (LCA-Ile), Example 44 (LCA-Val), Example 52 (LCA-Tyr), Example 51 (LCA-Ser), Example 55 (LCA-Glu), Example 2 (UDCA-Ile), Example 3 (UDCA-Val), Example 25 (LCA-Val-Trp), Example 10 (DCA-Ile), Comparative Example 1 (LCA), and Comparative Example 2 (UDCA).
# First, the cell pellets were pipetted with 100 µl of HEPES lysis buffer (10 mM HEPES, 100 mM NaCl, 1 mM EDTA, 1% NP-40), placed on ice for 20 minutes, and then centrifuged with a centrifuge under the conditions at 4°C and 13000 rpm. After transferring the supernatant only to the new microtube, 4.5 µl of nuclease buffer I (10 mM CaCl2, 12 mM MgCl2, DNase 10 units) was added to carry out a reaction at 37°C for 2 hours, and 40 µl of 26% PEG solution was added, followed by a reaction on ice for 1 hour. After centrifuging with the centrifuge at 4°C and 13000 rpm for 30 minutes, and the supernatant was removed cleanly. After releasing the pellets with 100 µl of nuclease buffer II (10 mM Tris, 8 mM CaCl2, 6mM MgCl2), 287.5 µl of 0.5% SDS buffer (25 mM Tris, 10 mM EDTA, 0.5% SDS, 100 mM NaCl) was added, and 12.5 µl of 20 mg/ml proteinase K was added, followed by a reaction at 37°C for 2 hours. 400 µl of phenol-chloroform-isoamyl alcohol was added, centrifugation was performed at room temperature at 13000 rpm after voltexing, the supernatant was transferred to a new tube, 40 µl of 3 M NaOAc was added, and 800 µl of 100% ethanol was added for inverting, followed by a reaction overnight at -20°C. After performing centrifugation at 4°C and 13000 rpm for 30 minutes, 800 µl of 70% ethanol was added and mixed to the pellet obtained by removing the supernatant, centrifugation was performed at 4°C and 13000 rpm for 10 minutes, and then the supernatant was discarded. The ethanol was dried for 5 minutes to leave only the HBV DNA pellets, and then the pellets were dissolved again in 15 µl of TE buffer (10 mM Tris, 1 mM EDTA). HBV DNA samples were loaded in 1% agarose gel, and electrophoresis was performed. It was then immersed in denature buffer (0.25 N NaOH, 1 M NaCl) for 30 minutes to denature dsDNA of HBV into ssDNA. The DNA in the gel was transferred to a Nylon membrane using a transfer buffer (0.4 M NaOH), the membrane was soaked with a 2X SSC buffer (sigma, cat# 85639) for neutralization, followed by drying in air. The membrane was immersed in a church buffer (10% BSA, 0.5 M EDTA, 1 M NaPi, 20% SDS), and the radioisotopes were hybridized using a Mega prime kit (GE healthcare, RPN1607). After washing three times with washing buffer (2X SSC, 0.1% SDS), measurement was performed using radioisotope measurement equipment, and a relative replication rate (%) to the negative control group (Mock) was calculated and shown.
# Jurkat cell line = test: Cytotoxicity, WST-1 cell viability; assay type: cell-based, human; details: 0.2 µM ~ 50 µM, 24 and 48 hours
# Experimental: For Example 1 (LCA-Ile), Example 44 (LCA-Val), Example 2 (UDCA-Ile), and Example 3 (UDCA-Val), cytotoxicity was evaluated in the Jurkat cell line, a human T lymphocyte-derived cell line. Jurkat cell lines were seeded at a density of 5 × 10^4 on a 96 well plate for overnight incubation, and each compound was treated at a concentration of 0.2 µM ~ 50 µM for 24 or 48 hours. WST-1, a reagent for measuring cell viability, was loaded at 10 µl/well, and absorbance was measured at 440 nm using a microplate reader 2 hours later. The mean value of negative control (NC) group treated with only DMSO was calculated as 1 and the cytotoxicity for the remaining experimental group was evaluated.
# HBV [2] = test: Inhibition of intracellular HBV virus invasion, HBeAg ELISA analysis; assay type: cell-based; details: 20 µM, HepG2-NTCP cell line, HBV 3000 Geq/cell, O.D. at 450 nm
# Experimental: as §1, §2
# HBeAg ELISA analysis was performed using an HBeAg ELISA kit (sanbio, Wantai HBeAg ELISA, cat#WB-2496) for the supernatant obtained by the method in Experimental Example 4-1.
# First, a negative control group (Mock), positive control group (MyrB), and samples according to the present disclosure were loaded, by 50 µl each to be triplicate, onto a 96-well plate coated with capture Ab. In this case, Example 1 (LCA-ILE), Example 44 (LCA-Val), Example 52 (LCA-Tyr), Example 51 (LCA-Ser), Example 55 (LCA-Glu), Example 2 (UDCA-Ile), Example 3 (UDCA-Val), Example 25 (LCA-Val-Trp), Example 10 (DCA-Ile), Comparative Example 1 (LCA), and Comparative Example 2 (UDCA) were used as the sample.
# The HRP-conjugated detection antibody was loaded into each well by 50 µl, followed by a reaction at 37°C for 30 minutes. Washing buffer (1X PBS, 0.5% Tween20) was added by 200 µl, and washing was performed 5 times. 50 µl of chromogen solution A and 50 µl of chromogen solution B were added to each well, and a reaction was carried out in the darkness at 37°C for 15 minutes. The stop solution was added to each well by 50 µl each to stop the reaction, and the amount of HBeAg was measured by measuring the absorbance (optical density, O.D.) level in the 450 nm wavelength band.
structure (smiles),measurement,setting,value
"CC[C@@H](C)[C@H](NC(=O)CC[C@@H](C)[C@H]1CC[C@H]2[C@@H]3CC[C@@H]4C[C@H](O)CC[C@]4(C)[C@H]3CC[C@]12C)C(=O)O [Example 1, (2S,3R)-2-((R)-4-((3R,5R,8R,9S,10S,13R,14S,17R)-3-hydroxy-10,13-dimethyl-hexadecahydro-1H-cyclopenta[a]phenanthren-17-yl)pentanamido)-3-methylpentanoic acid]",amount of HBeAg DNA detected compared to the negative control group (Mock),"HBV [1]; 20 µM, HepG2-NTCP cell line, HBV 3000 Geq/cell",relatively less amount
same,activity at 20 µM,"HBV [1]; Hepatitis B virus, read-out: relative replication rate of quantified HBeAg DNA to the negative control group (Mock), 20 µM, HepG2-NTCP cell line, HBV 3000 Geq/cell",< 80%
same,cytotoxicity,Jurkat cell line,barely observed
same,HBeAg absorbance level compared with Comparative Example 1 (LCA) and Comparative Example 2 (UDCA),HBV [2],lower
same,HBeAg absorbance level compared with the negative control group (Mock),HBV [2],relatively lower
